Measurements as given in patent US4210648A, “II-Aminoacyl-5,11-dihydro-6H-pyrido(2,3-B) (1,4)benzodiazepin-6-ones and salts thereof” (Boehringer Ingelheim GmbH, priority 1977, dated 1980).

What was measured:
mouse = assay: acute toxicity after peroral administration to mice; type: in vivo
Experimental: (§1) The spasmolytic effect was determined in vitro on the guinea pig colon, using the experimental arrangement according to R. Magnus, Pflugers Archiv, 102, pp. 123 (1904). Acetylcholine was taken to induce spasms, the substance for comparison was atropinesulfate. The spasticum was administered one minute before the administration of the spasmolytic substance, and the spasmolytic was allowed to take effect for 1 minute. […] The acute toxicity was determined after peroral administration of the test substance to fasted white mice with a body weight of 18 to 20 gm. The observation period was 14 days. For each dosage a group of six mice was used.

[1] = as above; type: in vivo; details: in vivo, po, mouse, observation 14 days
Experimental: as §1

stress ulcers = assay: inhibiting effect on the formation of stress ulcers in rats; type: in vivo
Experimental: (§2) The compounds were examined with regard to their inhibiting effect on the formation of stress ulcers in rats and their spasmolytic effect, related to atropine, with consideration of their acute toxicity.
The inhibiting effect on the formation of stress ulcers in rats was determined according to the method of K. Takagi and S. Okabe, Jap.Journ.Pharmac. 18, pp. 9 to 18 (1968). Fed female rats with a body weight between 220 and 260 gm were individually put into small wire cages and were subsequently kept vertically submerged in a water bath which was kept constant at a temperature of 23° C. for 16 hours, so that only the heads and the breastbones of the animals were above the water surface. The test compounds were administered perorally 5 to 10 minutes before. With each substance five animals were treated. 1 ml of a 0.9% physiological sodium chloride solution or 1 ml of a 1% tylose solution was administered to the control animals in the same way. After 18 hours the animals were killed by an overdose of ethyl chloride, the stomachs were excised, cut along the big curvature and spread on a cork plate. The evaluation was carried out according to the methods of Marazzi-Uberti and Turba, Med. Exp. 4, pp. 284 to 292 (1961), and Takagi and Okabe (supra).

guinea pig colon = assay: spasmolytic effect in vitro on the guinea pig colon (acetylcholine-induced spasms; comparison atropinesulfate); details: relative to atropine = 1
Experimental: as §2, §1

Row | Structure (SMILES) | animals died at 2000 mg/kg (mouse; 2000 mg/kg) | LD50 at 336 h [1] | Ulcer-inhibition in % (rat) after peroral administr. of 12.5 mg/kg (stress ulcers) | Ulcer-inhibition in % (rat) after peroral administr. of 25 mg/kg (stress ulcers) | Ulcer-inhibition in % (rat) after peroral administr. of 50 mg/kg (stress ulcers) | Spasmolysis (acetylcholine) with regard to Atropin = 1 (guinea pig colon) | animals died at 1000 mg/kg (mouse) | animals died at 1500 mg/kg (mouse)
1 | O=C1Nc2cccnc2N(C(=O)CCN2CCCCC2)c2ccccc21 [D, 5,11-Dihydro-11-(3-piperidinopropionyl)-6H-pyrido [2,3-b][1,4]-benzodiazepin-6-one] | 3 out of 5 | ~2000 mg/kg | 58% | 69% | 84% | 1/125 |  | 
2 | COC1CCN(CC(=O)N2c3ccccc3C(=O)Nc3cccnc32)CC1 [B, 5,11-Dihydro-11-[(4-methoxypiperidino)acetyl]-6H-pyrido [2,3-b]-[1,4]benzodiazepin-6-one] |  | > 1000 mg/kg | 53% | 79% | 89% | 1/125 | 2 out of 5 | 
3 | CCN1CCCC1CNCC(=O)N1c2ccccc2C(=O)N(C)c2cccnc21 (stereo not drawn) [A, 11-{[(1-Ethyl-2-pyrrolidinyl)methylamino]acetyl}-5,11-dihydro-5-methyl-6H-pyrido[2,3-b][1,4]benzodiazepin-6-one] |  | ~1500 mg/kg | 90% | 90% | 95% | 1/250 |  | 2 out of 4
4 | CC1CCCCN1CCC(=O)N1c2ccccc2C(=O)Nc2cccnc21 (stereo not drawn) [C, 5,11-Dihydro-11-[3-(2-methylpiperidino)propionyl]-6H-pyrido-[2,3-b][1,4]benzodiazepin-6-one] |  | > 1000 mg/kg | 79% | 84% | 95% | 1/50 | 1 out of 5 | 
5 | O=C1Nc2cccnc2N(C(=O)CCCN2CCCC2)c2ccccc21 [E, 5,11-Dihydro-11-(4-pyrrolidino-butyryl)-6H-pyrido[2,3-b][1,4]-benzodiazepin-6-one] |  | > 1500 mg/kg | 18% | 58% | 79% | 1/190 |  | 1 out of 6
